Consider 22 compounds from patent US8435978B2, “Substituted sulfonamide compounds” (Gruenenthal GmbH, priority 2006, dated 2013).

The target of one experiment is T1, human B1R receptor (Homo sapiens, UniProt P46663).
T1 construct: host or cells: CHO K1 cells (Chinese hamster ovary), stably transfected
T1 sequence (P46663 1-353): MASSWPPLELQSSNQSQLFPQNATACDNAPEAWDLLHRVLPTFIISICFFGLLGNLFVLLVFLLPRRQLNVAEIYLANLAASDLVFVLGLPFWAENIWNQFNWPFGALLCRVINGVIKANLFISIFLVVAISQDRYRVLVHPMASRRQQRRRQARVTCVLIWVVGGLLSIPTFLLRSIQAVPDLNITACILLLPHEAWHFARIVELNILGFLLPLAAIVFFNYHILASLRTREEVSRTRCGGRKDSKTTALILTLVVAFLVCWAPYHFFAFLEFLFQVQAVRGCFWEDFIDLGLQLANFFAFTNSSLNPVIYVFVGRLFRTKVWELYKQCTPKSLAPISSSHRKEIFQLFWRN
As to the kind of experiment: Functional study on the bradykinin receptor 1 (B1R), FLIPR Ca2+ assay, hB1R cells. The format is cell-based. Particulars: CHO-K1, test substance 10 μM, agonist Lys-Des-Arg9-bradykinin 0.5 nM, % inhibition compared with the maximum achievable inhibition, read-out: B1R Antagonism, human [10 μM] % Inhibition. The method, boiled down: (§1)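 Cells were dye-loaded 60 min at 37 °C, equilibrated 20 min at room temperature, then given 10 μM compound. Ten minutes later the species-matched agonist was added (0.5 nM Lys-Des-Arg9-bradykinin, human; 100 nM Des-Arg9-bradykinin, rat) and Ca2+ influx suppression expressed as % of maximum inhibition.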

In the next experiment the target is T2, B1R receptor of the rat (Rattus norvegicus, UniProt P97583).
T2 construct: host or cells: CHO K1 cells (Chinese hamster ovary), stably transfected
T2 sequence (P97583 1-337): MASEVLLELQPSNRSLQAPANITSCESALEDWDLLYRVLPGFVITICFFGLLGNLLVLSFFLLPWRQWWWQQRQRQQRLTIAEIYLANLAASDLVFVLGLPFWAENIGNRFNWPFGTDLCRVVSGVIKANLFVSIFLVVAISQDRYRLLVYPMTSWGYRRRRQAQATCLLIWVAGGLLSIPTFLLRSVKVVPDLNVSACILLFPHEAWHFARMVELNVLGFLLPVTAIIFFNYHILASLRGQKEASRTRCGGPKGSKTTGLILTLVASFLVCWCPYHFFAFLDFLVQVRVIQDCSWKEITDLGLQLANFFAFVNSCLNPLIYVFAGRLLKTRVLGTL
As to the kind of experiment: Functional study on the bradykinin receptor 1 (B1R), FLIPR Ca2+ assay, rB1R cells. The format is cell-based. Particulars: CHO-K1, test substance 10 μM, agonist Des-Arg9-bradykinin 100 nM, % inhibition compared with the maximum achievable inhibition, read-out: B1R Antagonism, rat [10 μM] % Inhibition. The method in brief:
as §1

Regarding `Cc1cccc(CC2CCCN2C(=O)COCC2CCCCN2S(=O)(=O)c2c(Cl)cccc2Cl)n1` (centres unmarked) [Example 458, 2-((1-(2,6-dichlorophenylsulfonyl)piperidin-2-yl)methoxy)-1-(2-((6-methylpyridin-2-yl)methyl)pyrrolidin-1-yl)ethanone], the inhibition at 10 µM was 103% at human B1R receptor and 100% on B1R receptor of the rat.

With `O=C(COCC1CCCCN1S(=O)(=O)c1c(Cl)cc(Cl)cc1Cl)NCCN1CCCC1` (centres unmarked) [Example 459, N-(2-(pyrrolidin-1-yl)ethyl)-2-((1-(2,4,6-trichlorophenylsulfonyl)piperidin-2-yl)methoxy)acetamide], the results for the inhibition at 10 µM at human B1R receptor and at B1R receptor of the rat were 57.1% and 102%, respectively.

For the compound `COc1cc(C)c(S(=O)(=O)N2CCCC2COCC(=O)N2CCN(Cc3ccccc3)CC2)c(C)c1` (centres unmarked) [Example 460, 1-(4-benzylpiperazin-1-yl)-2-((1-(4-methoxy-2,6-dimethylphenylsulfonyl)pyrrolidin-2-yl)methoxy)ethanone], the inhibition at 10 µM at human B1R receptor worked out at 96.6%; at B1R receptor of the rat it was 101%.

As to `COc1cc(C)c(S(=O)(=O)N2CCCC2COCC(=O)N2CCN(c3ccccc3)CC2)c(C)c1` (centres unmarked) [Example 461, 2-((1-(4-methoxy-2,6-dimethylphenylsulfonyl)pyrrolidin-2-yl)methoxy)-1-(4-phenylpiperazin-1-yl)ethanone], the values for the inhibition at 10 µM at human B1R receptor and at B1R receptor of the rat were 101% and 99.1%, respectively.

In the case of `COc1cc(C)c(S(=O)(=O)N2CCCC2COCC(=O)N2CCN(Cc3ccc4c(c3)OCO4)CC2)c(C)c1` (centres unmarked) [Example 462, 1-(4-(benzo[d][1,3]dioxol-5-ylmethyl)piperazin-1-yl)-2-((1-(4-methoxy-2,6-dimethylphenylsulfonyl)pyrrolidin-2-yl)methoxy)ethanone], the inhibition at 10 µM worked out at 101% at human B1R receptor and 98.2% at B1R receptor of the rat.

As to `COc1cc(C)c(S(=O)(=O)N2CCCC2COCC(=O)N(Cc2ccccc2)c2cc(C)ccn2)c(C)c1` (centres unmarked) [Example 463, N-benzyl-2-((1-(4-methoxy-2,6-dimethylphenylsulfonyl)pyrrolidin-2-yl)methoxy)-N-(4-methylpyridin-2-yl)acetamide], the inhibition at 10 µM on human B1R receptor is 97.4%; at B1R receptor of the rat, 101%.

Consider `COc1cc(C)c(S(=O)(=O)N2CCCC2COCC(=O)N(Cc2ccccc2)c2cccc(C)n2)c(C)c1` (centres unmarked) [Example 464, N-benzyl-2-((1-(4-methoxy-2,6-dimethylphenylsulfonyl)pyrrolidin-2-yl)methoxy)-N-(6-methylpyridin-2-yl)acetamide], for which the inhibition at 10 µM on human B1R receptor worked out at 56.6%; at B1R receptor of the rat, 102%.

In the case of `COc1cc(C)c(S(=O)(=O)N2CCCC2COCC(=O)N2CCN(c3cccc(C(F)(F)F)c3)CC2)c(C)c1` (centres unmarked) [Example 465, 2-((1-(4-methoxy-2,6-dimethylphenylsulfonyl)pyrrolidin-2-yl)methoxy)-1-(4-(3-(trifluoromethyl)phenyl)piperazin-1-yl)ethanone], the figures for the inhibition at 10 µM at human B1R receptor and on B1R receptor of the rat were 102% and 98.8%, respectively.

For `CCN(Cc1ccncc1)C(=O)COCC1CCCN1S(=O)(=O)c1c(C)cc(OC)cc1C` (centres unmarked) [Example 466, N-ethyl-2-((1-(4-methoxy-2,6-dimethylphenylsulfonyl)pyrrolidin-2-yl)methoxy)-N-(pyridin-4-ylmethyl)acetamide], the results for the inhibition at 10 µM at human B1R receptor and at B1R receptor of the rat were 92.5% and 99.7%, respectively.

With `COc1cc(C)c(S(=O)(=O)N2CCCC2COCC(=O)N2CCCN(C)CC2)c(C)c1` (centres unmarked) [Example 467, 2-((1-(4-methoxy-2,6-dimethylphenylsulfonyl)pyrrolidin-2-yl)methoxy)-1-(4-methyl-1,4-diazepan-1-yl)ethanone], the inhibition at 10 µM at human B1R receptor and on B1R receptor of the rat was 101% throughout.

With `COc1cc(C)c(S(=O)(=O)N2CCCC2COCC(=O)N2CCN(c3ccc(C(F)(F)F)cn3)CC2)c(C)c1` (centres unmarked) [Example 468, 2-((1-(4-methoxy-2,6-dimethylphenylsulfonyl)pyrrolidin-2-yl)methoxy)-1-(4-(5-(trifluoromethyl)pyridin-2-yl)piperazin-1-yl)ethanone], the inhibition at 10 µM stood at 84.5% on human B1R receptor and 101% at B1R receptor of the rat.

In the case of `COc1cc(C)c(S(=O)(=O)N2CCCC2COCC(=O)N2CCN(c3ncc(C(F)(F)F)cc3Cl)CC2)c(C)c1` (centres unmarked) [Example 469, 1-(4-(3-chloro-5-(trifluoromethyl)pyridin-2-yl)piperazin-1-yl)-2-((1-(4-methoxy-2,6-dimethylphenylsulfonyl)pyrrolidin-2-yl)methoxy)ethanone], the figures for the inhibition at 10 µM at human B1R receptor and on B1R receptor of the rat were 92.3% and 102%, respectively.

Turning to `COc1cc(C)c(S(=O)(=O)N2CCCC2COCC(=O)Nc2ccc(CCc3nc4ccccc4n3C)cc2)c(C)c1` (centres unmarked) [Example 470, 2-((1-(4-methoxy-2,6-dimethylphenylsulfonyl)pyrrolidin-2-yl)methoxy)-N-(4-(2-(1-methyl-1H-benzo[d]imidazol-2-yl)ethyl)phenyl)acetamide], the inhibition at 10 µM on human B1R receptor stood at 92.7%; at B1R receptor of the rat it was 98.1%.

For the compound `COc1cc(C)c(S(=O)(=O)N2CCCC2COCC(=O)Nc2cccc(CN3CCCCC3)c2)c(C)c1` (centres unmarked) [Example 471, 2-((1-(4-methoxy-2,6-dimethylphenylsulfonyl)pyrrolidin-2-yl)methoxy)-N-(3-(piperidin-1-ylmethyl)phenyl)acetamide], the figures for the inhibition at 10 µM on human B1R receptor and at B1R receptor of the rat were 103% and 98.8%, respectively.

Consider `COc1cc(C)c(S(=O)(=O)N2CCCC2COCC(=O)NCc2ccccc2N2CCN(C)CC2)c(C)c1` (centres unmarked) [Example 473, 2-((1-(4-methoxy-2,6-dimethylphenylsulfonyl)pyrrolidin-2-yl)methoxy)-N-(2-(4-methylpiperazin-1-yl)benzyl)acetamide], for which the inhibition at 10 µM on human B1R receptor stood at 94.6%; at B1R receptor of the rat, 99.5%.

`COc1cc(C)c(S(=O)(=O)N2CCCC2COCC(=O)N2CCC(c3nc4cc(C)ccc4[nH]3)CC2)c(C)c1` (centres unmarked) [Example 474, 2-((1-(4-methoxy-2,6-dimethylphenylsulfonyl)pyrrolidin-2-yl)methoxy)-1-(4-(5-methyl-1H-benzo[d]imidazol-2-yl)piperidin-1-yl)ethanone]: the values for the inhibition at 10 µM on human B1R receptor and at B1R receptor of the rat were 96.7% and 96.3%, respectively.

With `COc1cc(C)c(S(=O)(=O)N2CCCC2COCC(=O)N2CCCCCC2c2ccc(N(C)C)cc2)c(C)c1` (centres unmarked) [Example 475, 1-(2-(4-(dimethylamino)phenyl)azepan-1-yl)-2-((1-(4-methoxy-2,6-dimethylphenylsulfonyl)pyrrolidin-2-yl)methoxy)ethanone], the inhibition at 10 µM at human B1R receptor is 90.4%; on B1R receptor of the rat, 102%.

`COc1cc(C)c(S(=O)(=O)N2CCCC2COCC(=O)N2CC[C@@H](N(C)C)C2)c(C)c1` (stereo partly drawn) [Example 476, 1-((R)-3-(dimethylamino)pyrrolidin-1-yl)-2-((1-(4-methoxy-2,6-dimethylphenylsulfonyl)pyrrolidin-2-yl)methoxy)ethanone]: the inhibition at 10 µM at human B1R receptor was 90.1%; at B1R receptor of the rat it was 100%.

Consider `COc1cc(C)c(S(=O)(=O)N2CCCC2COCC(=O)NC2CCN(Cc3ccccc3)CC2)c(C)c1` (centres unmarked) [Example 477, N-(1-benzylpiperidin-4-yl)-2-((1-(4-methoxy-2,6-dimethylphenylsulfonyl)pyrrolidin-2-yl)methoxy)acetamide], for which the inhibition at 10 µM on human B1R receptor stood at 94.5%; on B1R receptor of the rat, 98.8%.

As for `O=C(COCC1CCCN1S(=O)(=O)c1cc(Cl)sc1Cl)N1CCN(Cc2ccccc2)CC1` (centres unmarked) [Example 478, 1-(4-benzylpiperazin-1-yl)-2-((1-(2,5-dichlorothiophen-3-ylsulfonyl)pyrrolidin-2-yl)methoxy)ethanone], the inhibition at 10 µM at human B1R receptor worked out at 36.2%; at B1R receptor of the rat, 90.2%.

`COc1cc(C)c(S(=O)(=O)N2Cc3ccccc3CC2COCC(=O)N2CCN(c3ccccc3)CC2)c(C)c1C` (centres unmarked) [Example 479, 2-((2-(4-Methoxy-2,3,6-trimethylphenylsulfonyl)-1,2,3,4-tetrahydroisoquinolin-3-yl)methoxy)-1-(4-phenylpiperazin-1-yl)ethanone]: the inhibition at 10 µM on human B1R receptor was determined as 32.3%; on B1R receptor of the rat it was 99.1%.

`O=C(COCC1CCCCN1S(=O)(=O)c1c(Cl)cccc1Cl)N1CCN(Cc2ccccc2)CC1` (centres unmarked) [Example 480, 1-(4-benzylpiperazin-1-yl)-2-((1-(2,6-dichlorophenylsulfonyl)piperidin-2-yl)methoxy)ethanone]: the inhibition at 10 µM on human B1R receptor is 101%; at B1R receptor of the rat it was 103%.

For orientation: inhibition means the change of the read-out against control, counted positive when it falls.
